Reference: ChEMBL document CHEMBL3272078, “Stereochemical analogs of a muscarinic, ganglionic stimulant. 3. 2,3-Substituted bicyclo(2.2.1)hept-5-enes and -heptanes related to 4-(N-(3-chlorophenyl)carbamoyloxy)-2-butynyltrimethylammonium chloride (McN-A-343)” (J Med Chem, 1976)
The source made the active and inactive calls. The rule behind the calls is not given here.

Tests used:
Assay type in all cases: functional, organism-based
Felis catus [1] = assay: Ganglion-stimulant activity in cat assessed as pressor response up to 1000 ug/kg, iv
Felis catus [2] = assay: Ganglion-stimulant activity in iv dosed cat assessed as depressor response
Felis catus [3] = assay: Inhibition of McN-A-343-induced pressor response in iv dosed cat

| Structure (SMILES) | Activity (Felis catus [1]) | Activity (Felis catus [2]) | inhibition (Felis catus [3]) |
| --- | --- | --- | --- |
| C[N+](C)(C)C[C@H]1[C@H]2CC[C@@H](C2)[C@H]1COC(=O)Nc1ccc(Cl)cc1 | inactive | inactive | inactive |
| C[N+](C)(C)C[C@H]1[C@H](COC(=O)Nc2ccc(Cl)cc2)[C@H]2C=C[C@H]1C2 | inactive | inactive | inactive |
| C[N+](C)(C)C[C@H]1[C@@H](COC(=O)Nc2ccc(Cl)cc2)[C@H]2C=C[C@H]1C2 | inactive | inactive | inactive |
| C[N+](C)(C)C[C@H]1[C@H]2CC[C@@H](C2)[C@@H]1COC(=O)Nc1ccc(Cl)cc1 | inactive | inactive | inactive |
| C[N+](C)(C)C[C@@H]1[C@H]2CC[C@@H](C2)[C@@H]1COC(=O)Nc1ccc(Cl)cc1 | inactive | inactive | inactive |
| C[N+](C)(C)CC#CCOC(=O)Nc1cccc(Cl)c1 | Active |  |  |
| C[N+](C)(C)C[C@@H]1[C@H]2CC[C@@H](C2)[C@H]1COC(=O)Nc1ccc(Cl)cc1 | inactive | inactive | inactive |
| C[N+](C)(C)C[C@@H]1[C@H](COC(=O)Nc2ccc(Cl)cc2)[C@H]2C=C[C@H]1C2 | inactive | inactive | inactive |
| C[N+](C)(C)C[C@@H]1[C@@H](COC(=O)Nc2ccc(Cl)cc2)[C@H]2C=C[C@H]1C2 | inactive | inactive | inactive |
